Test results published in patent US20100317709A1, “SPHINGOSINE-1-PHOSPHATE (S1P) RECEPTOR COMPOUNDS” (UNIVERSITEIT LEIDEN, priority 2007, published 2010).

Assays:
S1P3 receptor = S1P3 receptor (Homo sapiens, UniProt Q99500); assay: cAMP accumulation assay at the S1P3 receptor (Lance cAMP 384 kit); type: cell-based; conditions: for EC50: N.D. = not defined because the potency and/or the efficacy were too low, read-out: pEC50 S1P3 (converted); for efficacy (α) S1P3: S1P = 1.00, N.D. = not defined because the potency and/or the efficacy were too low
Chain of S1P3 receptor (Q99500 whole entry): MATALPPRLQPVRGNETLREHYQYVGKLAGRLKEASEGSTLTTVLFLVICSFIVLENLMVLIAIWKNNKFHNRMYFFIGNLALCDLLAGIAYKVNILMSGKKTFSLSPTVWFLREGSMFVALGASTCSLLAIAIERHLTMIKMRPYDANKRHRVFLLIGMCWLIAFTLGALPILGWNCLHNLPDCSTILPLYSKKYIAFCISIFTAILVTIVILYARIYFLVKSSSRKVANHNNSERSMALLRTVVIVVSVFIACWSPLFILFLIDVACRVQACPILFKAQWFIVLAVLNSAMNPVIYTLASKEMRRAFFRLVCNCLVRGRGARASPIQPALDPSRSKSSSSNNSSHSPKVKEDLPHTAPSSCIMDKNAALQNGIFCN
Excerpt: (§1) A primary function of certain cell surface receptors is to activate second messenger systems upon binding of an agonist. The S1P1 receptor selectively binds to and activates Gi-proteins and activation of this receptor subtype thus results in the inhibition of cAMP production. The S1P2 receptor predominantly activates Gq-proteins finally resulting in increases in intracellular calcium. S1P3 receptor activation results in both, an inhibition of cAMP production and an increase in intracellular calcium, via the activation of Gi- and Gq-proteins
(§2) Accordingly, we performed measurements on cAMP accumulation (Lance cAMP 384 kit, Perkin Elmer, Zaventem, Belgium) and measurements on changes in intracellular calcium (for method see Jongsma et al., 2006) (8).

S1P1 receptor = S1P1 receptor (Homo sapiens, UniProt P21453); assay: cAMP accumulation assay at the S1P1 receptor (Lance cAMP 384 kit); type: cell-based; conditions: for EC50: N.D. = not defined because the potency and/or the efficacy were too low, read-out: pEC50 S1P1 (converted); for efficacy (α) S1P1: S1P = 1.00, N.D. = not defined because the potency and/or the efficacy were too low
Chain of S1P1 receptor (P21453 whole entry): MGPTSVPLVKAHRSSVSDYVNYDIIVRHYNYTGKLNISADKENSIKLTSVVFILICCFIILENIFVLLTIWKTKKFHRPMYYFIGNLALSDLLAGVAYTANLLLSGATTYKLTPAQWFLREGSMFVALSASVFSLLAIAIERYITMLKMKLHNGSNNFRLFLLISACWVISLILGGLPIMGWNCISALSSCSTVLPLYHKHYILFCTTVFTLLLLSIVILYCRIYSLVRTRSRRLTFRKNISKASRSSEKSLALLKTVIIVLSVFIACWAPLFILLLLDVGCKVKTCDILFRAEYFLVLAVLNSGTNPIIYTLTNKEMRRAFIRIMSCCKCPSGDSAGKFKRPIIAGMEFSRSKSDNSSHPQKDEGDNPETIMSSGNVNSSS
Excerpt: as §1, §2

| melting point | EC50 (S1P3 receptor) | efficacy (α) S1P3 (S1P3 receptor) | EC50 (S1P1 receptor) | efficacy (α) S1P1 (S1P1 receptor) | SMILES |
| --- | --- | --- | --- | --- | --- |
| 129 to 131 °C | > 10 µM | +/−1 (n = 3) |  |  | CCc1c(C)sc(N)c1C(=O)c1ccccc1 [LUF5464, (2-Amino-4-ethyl-5-methyl-3-thienyl)(phenyl)methanone] |
|  | > 10 µM | >0.5 |  |  | Nc1sc2c(c1C(=O)c1ccccc1)CCCC2 [LUF5465, (2-Amino-4,5,6,7-tetrahydrobenzo[b]thiophen-3-yl)(phenyl)methanone] |
| 100 to 101 °C |  |  |  |  | CCc1c(C)sc(N)c1C(=O)c1cccc(C(F)(F)F)c1 [LUF5468, (2-Amino-4-ethyl-5-methyl-3-thienyl)[3-(trifluoromethyl)phenyl]methanone] |
| 122 to 123 °C | 1.29 µM | 1.07 |  |  | Nc1sc2c(c1C(=O)c1cccc(C(F)(F)F)c1)CCCC2 [LUF5469, (2-Amino-4,5,6,7-tetrahydrobenzo[b]thiophen-3-yl)[3-(trifluoromethyl)phenyl]methanone] |
| 114 to 116 °C |  |  |  |  | Cc1sc(N)c(C(=O)c2cccc(Cl)c2)c1C [LUF5471, (2-Amino-4,5-dimethyl-3-thienyl)(3-chlorophenyl)methanone] |
| 99 to 102 °C |  |  |  |  | CCc1c(C)sc(N)c1C(=O)c1cccc(Cl)c1 [LUF5472, (2-Amino-4-ethyl-5-methyl-3-thienyl)(3-chlorophenyl)methanone] |
| 114 to 115 °C | 1.86 µM | 1.07 | 1 µM | 0.40 | Nc1sc2c(c1C(=O)c1cccc(Cl)c1)CCCC2 [LUF5473, (2-Amino-4,5,6,7-tetrahydrobenzo[b]thiophen-3-yl)(3-chlorophenyl)methanone] |
|  | 6.76 µM | 0.37 |  |  | Nc1sc2c(c1C(=O)c1ccc(Cl)cc1)CCCC2 [LUF5480, (2-Amino-4,5,6,7-tetrahydrobenzo[b]thiophen-3-yl)(4-chlorophenyl)methanone] |
| 108 to 110 °C |  |  |  |  | CCc1c(C)sc(N)c1C(=O)c1ccc(Cl)cc1 [LUF5482, (2-Amino-4-ethyl-5-methyl-3-thienyl)(4-chlorophenyl)methanone] |
| 152 to 154 °C | > 10 µM | <0.5 (n = 2) |  |  | Nc1sc2c(c1C(=O)c1ccc(Cl)c(Cl)c1)CCCC2 [LUF5484, (2-Amino-4,5,6,7-tetrahydrobenzo[b]thiophen-3-yl)(3,4-dichlorophenyl)methanone] |
| 123 to 125 °C |  |  |  |  | Cc1sc(N)c(C(=O)c2ccc(Cl)cc2)c1C [LUF5487, (2-Amino-4,5-dimethyl-3-thienyl)(4-chlorophenyl)methanone] |
| 173 to 175 °C |  |  |  |  | Nc1sc(-c2ccccc2)cc1C(=O)c1ccc(Cl)cc1 [LUF5488, (2-Amino-5-phenyl-3-thienyl)(4-chlorophenyl)methanone] |
| 145 to 147 °C | > 10 µM |  |  |  | Nc1sc2c(c1C(=O)c1ccc(C(F)(F)F)cc1)CCCC2 [LUF5489, (2-Amino-4,5,6,7-tetrahydrobenzo[b]thiophen-3-yl)[4-(trifluoromethyl)phenyl]methanone] |
| 152 to 153 °C | 1.15 µM | 0.41 |  |  | Nc1sc2c(c1C(=O)c1ccc(Br)cc1)CCCC2 [LUF5490, (2-Amino-4,5,6,7-tetrahydrobenzo[b]thiophen-3-yl)(4-bromophenyl)methanone] |
| 159 to 160 °C | 0.933 µM | 0.25 |  |  | COC(=O)c1ccc(C(=O)c2c(N)sc3c2CCCC3)cc1 [LUF5492, Methyl 4[(2-Amino-4,5,6,7-tetrahydrobenzo[b]thiophen-3-yl)-carbonyl]benzoate] |
| 232 to 233 °C |  |  |  |  | Nc1sc2c(c1C(=O)c1ccc(C(=O)O)cc1)CCCC2 [LUF5493, 4-[(2-Amino-4,5,6,7-tetrahydrobenzo[b]thiophen-3-yl)-carbonyl]benzoic acid] |
| 199 to 200 °C | > 10 µM |  |  |  | Nc1sc(CN2C(=O)c3ccccc3C2=O)cc1C(=O)c1cccc(C(F)(F)F)c1 [LUF5496, 2-({5-Amino-4-[3-(trifluoromethyl)benzoyl]-2-thienyl}methyl)-1,3-isoindolinedione] |
| 202 to 204 °C |  |  |  |  | Nc1sc2c(c1C(=O)c1ccc([N+](=O)[O-])cc1)CCCC2 [LUF5526, (2-Amino-4,5,6,7-tetrahydrobenzo[b]thiophen-3-yl)(4-nitrophenyl)methanone] |
| 155 to 156 °C | 3.09 µM | 0.96 |  |  | Cc1ccc(C(=O)c2c(N)sc3c2CCCC3)cc1 [LUF5527, (2-Amino-4,5,6,7-tetrahydrobenzo[b]thiophen-3-yl)(4-methylphenyl)methanone] |
| 150 to 152 °C | > 10 µM | <0.5 (n = 2) |  |  | Nc1sc2c(c1C(=O)c1ccc(I)cc1)CCCC2 [LUF5528, (2-Amino-4,5,6,7-tetrahydrobenzo[b]thiophen-3-yl)(4-iodophenyl)methanone] |
| 145 to 147 °C | 4.17 µM | 0.71 | 4.17 µM | 0.63 | Nc1sc2c(c1C(=O)c1ccccc1Cl)CCCC2 [LUF5532, (2-Amino-4,5,6,7-tetrahydrobenzo[b]thiophen-3-yl)(2-chlorophenyl)methanone] |
| 160 to 162 °C | 1.26 µM | 0.94 | 1.38 µM | 0.46 | Nc1sc2c(c1C(=O)c1cccc(I)c1)CCCC2 [LUF5533, (2-Amino-4,5,6,7-tetrahydrobenzo[b]thiophen-3-yl)(3-iodophenyl)methanone] |
|  | 0.000347 µM | 1.00 | 0.000138 µM | 1.00 | CCCCCCCCCCCCC/C=C/[C@@H](O)[C@@H](N)COP(=O)(O)O [S1P, sphingosine-1-phosphate] |
